Assay results as given in publication PMC6130796, “Copper-Catalyzed Syntheses of Pyrene-Pyrazole Pharmacophores and Structure Activity Studies for Tubulin Polymerization” (ACS Omega, 2018).
Entries after “also recorded” stand apart in the source; their conditions may differ.

Tests used:
human melanoma C32 cells = test: MTT assay in C32 cells; assay type: cell-based; conditions: 48 h
Text: (§1) An in vitro cancer cell two-dimensional culture model was used for this study using 3-(4,5-dimethylthiazole-2-yl)-2,5-diphenyltetrazolium bromide (MTT) assay.[19]
(§2) The cell viability of PPPs was investigated using 3-(4,5-dimethylthiazole-2-yl)-2,5-diphenyltetrazolium bromide (MTT) reduction assay in the presence of 10% fetal bovine serum in antibiotic free media. The yellow tetrazolium salt (MTT) is modified by mitochondrial dehydrogenases to its purple formazan derivative (MTT-formazan) with maximum absorbance at 560–570 nm. […] Experiment was performed in 96-well plates (Cellstar, Germany) growing 10 000 cells (MCF-7, MDA-MB231, and MCF-10A) per well for 24 h before treatments. Experiments were performed for various concentrations of PPPs ranging from 10^5 to 10^0 nM and compared with Taxol as positive control ranging from 10^2 to 10^–3 nM, as described in particular experiment. Cells were incubated for 48 h before performing the MTT assay. At the end of the incubation period, cells were treated with MTT (20 μL, 5 mg/mL) per well and further incubated for 4 h. At the end of the incubation, the entire medium was removed from the wells and 200 μL of dimethyl sulfoxide (DMSO) was added to dissolve blue-colored formazan crystals produced by mitochondrial respirations. The percentage cell viability was obtained by calculating absorbance values and calculated using the formula %viability = {[A630(treated cells) – (background)]/[A630(untreated cells) – background]} × 100.

MCF-7 cells [1] = test: MTT assay in MCF-7 cells; assay type: cell-based; conditions: for viability at 10 µM: read-out: viable cells; for IC50: MCF-7, MTT
Text: as §1, §2

MCF-10A cells = test: MTT assay in noncancerous MCF-10A cells; assay type: cell-based, human; conditions: 10 μM, 48 h
Method: Effectivity of anticancer drugs not only depends on cancer inhibition property but minimum effect to noncancerous normal cells. A representative study was performed on MCF-10A cells of noncancerous nature and human breast origin. […] It indicates the selectivity of PPPs toward cancer cells, presumably due to higher variation in tubulin polymerization processes.
as §2

MDA-MB231 cells = test: MTT assay in MDA-MB231 cells; assay type: cell-based
Text: as §1, §2

MCF-7 cells [2] = test: Cell growth density study (bright field images); assay type: cell-based; conditions: MCF-7, 1 μM
tubulin [3] = test: In vitro microtubule polymerization assay (fluorescence); assay type: biochemical; design: dose or concentration left out as unconfirmed; conditions: 37 °C, 1.5 h, λex 350 nm, 430 nm
Method: To gather further insight into the molecular mechanism of action of PPPs, an in vitro cytoskeleton assay was carried out to investigate the effect of these agents on microtubule polymerization (Figure 1). In this protocol, 85 μL of 10 mg/mL tubulin stock was incubated with tubulin glycerol buffer for 1.5 h at 37 °C in the presence of various PPPs at a fixed concentration (20 mM). Following this, the degree of tubulin polymerization was evaluated by observing their fluorescence profile with time.
The content of polymerized microtubules was monitored by measuring fluorescence intensity at 430 nm (λex = 350 nm) every 7 s for 1.5 h. Paclitaxel (PTXL), a well-known microtubule stabilizer, was added to the assay as a positive control, whereas the tubulin glycerol buffer acted as a negative control. […] This implies that addition of PPP1–7 into the assay led to a stabilization of microtubule polymerization. […] Further inspection to correlate between the obtained trend in tubulin polymerization and modifications attempted at the N-1 and C-3 positions yielded interesting observations. […]
Unless otherwise mentioned, the reagents and chemicals were purchased from Sigma-Aldrich (St. Louis, MO) and used without any purification. […] High-resolution mass spectra (HRMS) were recorded on a quad time-of-flight electrospray ionization (ESI)-MS instrument.

tubulin [4] = test: SDS-PAGE of PPP-tubulin mixtures, band intensity of polymerized tubulin (FIJI); assay type: biochemical; conditions: Coomassie stain, among all PPP–tubulin mixtures
Method: With this promising result, we further focused on confirming the polymerization of microtubules. PPP–tubulin mixtures were collected from the abovementioned assay, and a sodium dodecyl sulfate polyacrylamide gel electrophoresis (SDS-PAGE) was performed to separate both tubulin as well as polymerized tubulin from the mixture. […] Two distinct bands were obtained, one in the region of 40–55 kDa, which is consistent with the molecular weight of α-, β-tubulin,[16] and other in the region of 130 kDa. This is presumably a result of tubulin polymerization. A semiquantitative analysis of the polymerized tubulin bands was performed using FIJI[17] to calculate the band intensities, as shown in Figure 2b. Fold change of band intensities was further calculated with respect to PPP5–tubulin mixture (Figure 2c).  Figure 2 (a) Coomassie-stained gel lanes for tubulin–dye mixtures, showing two migrating populations, polymerized tubulin (∼130 kDa MW), and α-, β-tubulin (∼50 kDa MW). A representative molecular weight standard lane is also shown across the sample lanes for comparison.

[5] = Homo sapiens, MCF7, MCF-7, 10 μM, 48 h

Row | Compound | IC50 (human melanoma C32 cells; Homo sapiens) | viability at 10 µM (MCF-7 cells [1]; [5]) | IC50 (MCF-7 cells [1]; Homo sapiens, MCF7, 48 h) | cell death in noncancerous cells (MCF-10A cells) | IC50 (MDA-MB231 cells; Homo sapiens, MDA-MB-231, 48 h) | also measured
1 | Cc1cc(-c2ccc3ccc4cccc5ccc2c3c45)n(-c2ccccc2)n1 [PPP1, 3-Methyl-1-phenyl-5-(pyren-1-yl)-1H-pyrazole] | > 100 µM | 50 ± 5% | 60 ± 10 µM | did not result in any significant cell death | > 100 µM | 
2 | O=C(O)c1cc(-c2ccc3ccc4cccc5ccc2c3c45)n(-c2ccccc2)n1 [PPP7, 1-Phenyl-5-(pyren-1-yl)-1H-pyrazole-3-carboxylic Acid] | 14 ± 2 µM | 50 ± 5% | 8 ± 2 µM | did not result in any significant cell death | 10 ± 2 µM | 
3 | Cc1cc(-c2ccc3ccc4cccc5ccc2c3c45)n(-c2ccc(-c3ccccc3)cc2)n1 [PPP2, 1-([1,1′-Biphenyl]-4-yl)-3-methyl-5-(pyren-1-yl)-1H-pyrazole] | > 100 µM | 45 ± 3% | 34 ± 4 µM |  | 15 ± 5 µM | 
4 | 1-(Benzo[b]thiophen-2-yl)-3-methyl-5-(pyren-1-yl)-1H-pyrazole [PPP3] |  |  |  |  |  | IC50 (human melanoma C32 cells): > 100 µM; viable cells (MCF-7 cells [1]; MCF-7, 10 μM, 48 h): 52 ± 5%; IC50 (MCF-7 cells [1]; 48 h): > 100 µM; IC50 (MDA-MB231 cells; 48 h): > 100 µM
5 | c1ccc(-c2cc(-c3ccc4ccc5cccc6ccc3c4c56)n(-c3ccccc3)n2)cc1 [PPP4, 1,3-Diphenyl-5-(pyren-1-yl)-1H-pyrazole] | 5 ± 2 µM | 30 ± 3% | 1 ± 0.5 µM | did not result in any significant cell death | 0.5 ± 0.2 µM | loss in cell growth density (MCF-7 cells [2]): maximum loss
6 | CC(=O)O[C@H]1C(=O)[C@@]2(C)[C@H]([C@H](OC(=O)c3ccccc3)[C@]3(O)C[C@H](OC(=O)[C@H](O)[C@@H](NC(=O)c4ccccc4)c4ccccc4)C(C)=C1C3(C)C)[C@]1(OC(C)=O)CO[C@@H]1C[C@@H]2O [Taxol, Paclitaxel, reference compound] |  |  |  |  |  | effect on microtubule polymerization (fluorescence intensity with time) (tubulin [3]; listed as PTXL): increase in relative fluorescence intensity; also recorded: stabilizing the tubulin polymerization reaction; cell growth level (MCF-7 cells [1]; MCF-7, positive control, Figure 4b): 42 ± 10%
7 | c1ccc(-c2ccc(-n3nc(-c4ccccc4)cc3-c3ccc4ccc5cccc6ccc3c4c56)cc2)cc1 [PPP5, 1-([1,1′-Biphenyl]-4-yl)-3-phenyl-5-(pyren-1-yl)-1H-pyrazole] | > 100 µM | 70 ± 10% | > 100 µM |  | > 100 µM | effect on microtubule polymerization (fluorescence intensity with time) (tubulin [3]): inhibits microtubule formation; also recorded: inhibition of microtubule polymerization; band intensity of polymerized tubulin (∼130 kDa) (tubulin [4]): least
8 | Cc1cc(-c2ccc3ccc4cccc5ccc2c3c45)[nH]n1 [PPP6, 3-Methyl-5-(pyren-1-yl)-1H-pyrazole] | > 100 µM | 55 ± 5% | 43 ± 5 µM |  | > 100 µM | 
